Data reported in ChEMBL document CHEMBL1201862, “PubChem BioAssay data set” (2004).
Calls of active or inactive are those of the source.

What was measured:
[1] = molecular target: T1, Caspase-3 (Homo sapiens, UniProt P42574); assay type: functional;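 note: Dose-response selectivity test against caspase-3 for candidate inhibitors of sentrin-specific proteases (SENPs)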
T1 sequence (P42574 whole entry): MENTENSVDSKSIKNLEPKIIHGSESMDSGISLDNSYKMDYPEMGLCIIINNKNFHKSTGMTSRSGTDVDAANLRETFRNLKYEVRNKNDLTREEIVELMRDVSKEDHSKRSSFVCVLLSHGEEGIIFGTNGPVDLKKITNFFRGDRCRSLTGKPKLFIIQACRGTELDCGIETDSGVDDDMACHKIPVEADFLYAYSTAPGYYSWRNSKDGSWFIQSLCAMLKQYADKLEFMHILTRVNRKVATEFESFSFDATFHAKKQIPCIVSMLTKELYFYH

[2] = molecular target: T2, Sentrin-specific protease 7 (Homo sapiens, UniProt Q9BQF6); assay type: functional;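 note: Luminescence-based dose-response confirmation of ultra-high-throughput screening hits, measuring inhibition of SENP7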
T2 sequence (Q9BQF6 whole entry): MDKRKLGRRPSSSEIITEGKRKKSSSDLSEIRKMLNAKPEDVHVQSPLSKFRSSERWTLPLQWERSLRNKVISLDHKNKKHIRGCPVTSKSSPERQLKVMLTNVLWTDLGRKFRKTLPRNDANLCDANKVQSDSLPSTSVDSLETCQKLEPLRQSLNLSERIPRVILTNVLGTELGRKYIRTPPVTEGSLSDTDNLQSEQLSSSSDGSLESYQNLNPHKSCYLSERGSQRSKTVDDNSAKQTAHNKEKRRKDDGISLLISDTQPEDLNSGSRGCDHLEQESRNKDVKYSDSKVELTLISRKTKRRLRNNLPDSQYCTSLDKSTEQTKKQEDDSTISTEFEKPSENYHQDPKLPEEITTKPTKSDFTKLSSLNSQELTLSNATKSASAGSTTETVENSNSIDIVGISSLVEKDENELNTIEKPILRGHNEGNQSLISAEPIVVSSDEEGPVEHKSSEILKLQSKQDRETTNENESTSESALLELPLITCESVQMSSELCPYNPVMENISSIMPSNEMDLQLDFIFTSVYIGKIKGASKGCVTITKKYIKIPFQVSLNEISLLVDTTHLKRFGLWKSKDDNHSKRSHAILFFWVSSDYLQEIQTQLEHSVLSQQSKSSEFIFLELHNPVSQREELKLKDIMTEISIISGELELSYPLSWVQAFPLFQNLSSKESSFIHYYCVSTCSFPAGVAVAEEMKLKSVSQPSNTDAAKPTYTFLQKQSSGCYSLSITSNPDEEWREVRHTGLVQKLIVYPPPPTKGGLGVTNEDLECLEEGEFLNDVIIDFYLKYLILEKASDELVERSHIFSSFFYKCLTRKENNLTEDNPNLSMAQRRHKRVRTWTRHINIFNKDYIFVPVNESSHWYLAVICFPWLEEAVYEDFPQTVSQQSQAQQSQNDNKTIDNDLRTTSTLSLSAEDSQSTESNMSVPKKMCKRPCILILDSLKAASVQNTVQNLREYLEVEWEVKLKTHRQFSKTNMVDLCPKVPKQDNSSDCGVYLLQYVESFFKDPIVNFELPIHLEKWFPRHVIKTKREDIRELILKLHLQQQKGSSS

[3] = molecular target: T3, Sentrin-specific protease 6 (Homo sapiens, UniProt Q9GZR1); assay type: functional;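 note: Luminescence-based dose-response confirmatory assay of SENP6 inhibition, following up an ultra-high-throughput screen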
T3 sequence (Q9GZR1 whole entry): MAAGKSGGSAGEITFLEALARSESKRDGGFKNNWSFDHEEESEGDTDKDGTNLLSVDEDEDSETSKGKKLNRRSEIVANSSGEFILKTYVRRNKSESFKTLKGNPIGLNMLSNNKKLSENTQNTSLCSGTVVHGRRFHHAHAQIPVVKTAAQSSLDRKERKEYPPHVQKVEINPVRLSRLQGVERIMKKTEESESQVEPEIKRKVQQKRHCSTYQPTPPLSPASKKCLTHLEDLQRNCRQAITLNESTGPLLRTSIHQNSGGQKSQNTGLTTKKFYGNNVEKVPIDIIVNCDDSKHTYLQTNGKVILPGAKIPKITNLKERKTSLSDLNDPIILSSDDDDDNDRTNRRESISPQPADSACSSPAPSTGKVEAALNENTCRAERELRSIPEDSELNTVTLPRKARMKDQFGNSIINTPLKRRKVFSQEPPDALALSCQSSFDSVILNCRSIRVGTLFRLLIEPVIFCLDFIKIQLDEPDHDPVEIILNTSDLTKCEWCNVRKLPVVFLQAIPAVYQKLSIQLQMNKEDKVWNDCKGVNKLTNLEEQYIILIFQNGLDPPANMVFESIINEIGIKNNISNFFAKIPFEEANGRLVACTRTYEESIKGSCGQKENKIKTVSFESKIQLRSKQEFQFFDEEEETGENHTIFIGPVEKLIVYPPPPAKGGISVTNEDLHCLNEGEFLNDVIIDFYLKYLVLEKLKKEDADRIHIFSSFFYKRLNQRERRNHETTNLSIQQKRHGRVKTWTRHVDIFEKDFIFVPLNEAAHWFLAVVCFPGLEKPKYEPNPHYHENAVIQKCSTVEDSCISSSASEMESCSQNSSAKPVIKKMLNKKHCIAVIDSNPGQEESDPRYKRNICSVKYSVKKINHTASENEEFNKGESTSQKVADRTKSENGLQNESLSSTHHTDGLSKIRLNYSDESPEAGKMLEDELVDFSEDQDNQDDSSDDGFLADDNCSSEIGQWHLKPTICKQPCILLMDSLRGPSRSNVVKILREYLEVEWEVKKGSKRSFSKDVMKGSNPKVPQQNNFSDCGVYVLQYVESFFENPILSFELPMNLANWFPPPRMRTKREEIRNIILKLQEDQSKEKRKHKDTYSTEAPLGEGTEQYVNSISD

[4] = molecular target: T4, Sentrin-specific protease 8 (Homo sapiens, UniProt Q96LD8); assay type: functional;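 note: luminescence read-out of SENP8 inhibition, dose-response confirmation following an ultra-high-throughput screen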
T4 sequence (Q96LD8 whole entry): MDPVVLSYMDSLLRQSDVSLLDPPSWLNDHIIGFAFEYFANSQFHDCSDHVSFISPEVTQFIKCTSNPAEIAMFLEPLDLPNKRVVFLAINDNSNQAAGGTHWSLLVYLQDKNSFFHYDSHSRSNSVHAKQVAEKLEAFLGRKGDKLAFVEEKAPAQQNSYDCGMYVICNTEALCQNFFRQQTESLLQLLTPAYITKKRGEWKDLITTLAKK

[5] = molecular target: T5, Short transient receptor potential channel 4 (Mus musculus, UniProt Q9QUQ5); experiment: block of DAMGO-driven TRPC4 calcium entry – cell-based, HEK293 TRPC4/mu-opioid, Fluo-4 calcium, dose response (AID 434942); assay type: functional;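 note: potency of inhibitors blocking the TRPC4 calcium response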
T5 sequence (Q9QUQ5 whole entry): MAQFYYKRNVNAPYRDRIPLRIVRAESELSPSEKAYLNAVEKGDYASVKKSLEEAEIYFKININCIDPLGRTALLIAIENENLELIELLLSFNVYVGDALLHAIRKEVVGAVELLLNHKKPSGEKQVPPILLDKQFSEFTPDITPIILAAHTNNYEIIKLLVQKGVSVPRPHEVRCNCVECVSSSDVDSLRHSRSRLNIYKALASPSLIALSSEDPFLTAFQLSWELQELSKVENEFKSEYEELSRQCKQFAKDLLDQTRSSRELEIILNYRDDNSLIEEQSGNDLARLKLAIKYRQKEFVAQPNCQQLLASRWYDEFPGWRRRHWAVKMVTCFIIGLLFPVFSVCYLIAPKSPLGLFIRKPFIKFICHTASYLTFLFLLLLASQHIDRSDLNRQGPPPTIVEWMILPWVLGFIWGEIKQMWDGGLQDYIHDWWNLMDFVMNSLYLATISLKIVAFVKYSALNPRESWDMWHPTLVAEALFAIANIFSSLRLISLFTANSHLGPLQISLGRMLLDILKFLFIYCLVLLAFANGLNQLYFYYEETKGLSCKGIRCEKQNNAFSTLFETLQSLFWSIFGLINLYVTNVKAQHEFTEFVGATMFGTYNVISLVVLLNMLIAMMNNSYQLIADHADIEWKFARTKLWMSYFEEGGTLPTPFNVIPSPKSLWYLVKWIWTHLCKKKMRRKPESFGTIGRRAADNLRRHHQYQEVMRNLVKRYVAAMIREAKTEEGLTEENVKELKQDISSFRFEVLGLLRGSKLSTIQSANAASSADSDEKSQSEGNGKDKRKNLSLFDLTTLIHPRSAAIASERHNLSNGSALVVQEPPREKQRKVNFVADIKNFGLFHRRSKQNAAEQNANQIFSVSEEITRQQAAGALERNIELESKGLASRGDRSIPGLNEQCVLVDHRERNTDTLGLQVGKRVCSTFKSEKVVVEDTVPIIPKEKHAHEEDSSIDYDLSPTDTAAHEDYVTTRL

[6] = molecular target: T6, Oxysterols receptor LXR-beta (Homo sapiens, UniProt P55055); assay type: functional, cell-based;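 note: agonist activity at LXR measured by a cell-based luminescence readout across a dose range, run as a counterscreen for daf-12 agonists; HEK293 cells with Gal4-LXR fusion and GAL4-driven luciferase reporter; potency for activation of Gal4-LXR reporter so compounds are agonists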
T6 sequence (P55055 whole entry): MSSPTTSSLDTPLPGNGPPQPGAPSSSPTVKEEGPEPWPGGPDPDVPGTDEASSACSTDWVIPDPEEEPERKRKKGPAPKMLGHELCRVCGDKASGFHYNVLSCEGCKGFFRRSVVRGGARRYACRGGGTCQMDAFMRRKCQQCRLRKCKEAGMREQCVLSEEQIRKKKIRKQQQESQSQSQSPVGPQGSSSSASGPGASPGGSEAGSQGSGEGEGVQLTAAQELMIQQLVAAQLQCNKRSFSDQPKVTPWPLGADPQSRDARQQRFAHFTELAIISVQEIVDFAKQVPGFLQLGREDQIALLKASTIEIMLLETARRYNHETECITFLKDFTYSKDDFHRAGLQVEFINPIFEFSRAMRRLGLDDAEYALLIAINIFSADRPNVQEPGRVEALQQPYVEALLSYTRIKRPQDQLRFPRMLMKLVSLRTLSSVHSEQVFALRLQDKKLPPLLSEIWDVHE

[7] = off-target signal loss in HeLa-CEM21 co-culture – HeLa F-luc CTL cells, cherry-picked, counter-screen for HIV-1 Env fusion inhibitor project, dose response (AID 652040); assay type: functional, cell-based;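 note: potency for signal decrease marking cytotoxic or nonspecific inhibition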
[8] = HIV-1 AD8 envelope cell-cell fusion blockers – cherry-pick, dose response (AID 652062); assay type: functional, cell-based;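 note: luciferase signal from cell-cell fusion driven by HIV-1 clade B AD8 Env; potency is for inhibitors of fusion seen as a drop in luminescence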
[9] = blockers of HIV-1 ZM109 envelope-driven cell-cell fusion – HeLa effector, CEM target cells, luciferase, cherry-pick, dose response (AID 652058); assay type: functional, cell-based;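 note: luciferase signal from HIV-1 Env mediated cell-cell fusion of effector and target cells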
[10] = blockers of HIV-1 envelope-mediated cell-cell fusion – cherry-pick, dose response (AID 652057); assay type: functional, cell-based
[11] = molecular target: Heat shock protein HSP 90-alpha (Homo sapiens, UniProt P07900); assay type: functional, organism-based

SMILES | IC50 [1] | IC50 [2] | IC50 [3] | IC50 [4] | also measured
Cc1ccc(-c2noc(CSc3ccccc3)n2)cc1 | 25.5 µM (active) | 6.8 µM (active) | 36.4 µM (active) | 13.7 µM (active) | –
CN(Cc1ccccc1)C(=O)CSc1nnc(-c2ccco2)n1-c1ccccc1 | – | – | – | – | EC50 [5]: 1.68 µM (active)
C#CCNC(=O)C[C@H]1C[C@@]2(C(=O)OC)C(=C[C@H](C(C)C)O[C@@H]2C2CC2)N(CCCCCCCC)C1=O | – | – | – | – | EC50 [6]: > 67.5 µM (inactive)
Cc1cc(C)c(O)c(-c2cc(C(=O)Nc3cccnc3)[nH]n2)c1 | 31.4 µM (active) | 4.68 µM (active) | > 100 µM (inactive) | > 100 µM (inactive) | –
CC(C)(C)CC(C)(C)NCC(O)COc1ccc2c(c1)CCC2 (stereo unspecified) | – | – | – | – | EC50 [5]: 3.35 µM (active)
Cc1ccc(N=C(S)N(CCCN(C)C)Cc2cc3cc4c(cc3nc2O)OCO4)c(C)c1 | – | – | – | – | EC50 [5]: 3.35 µM (active)
O=C(NNCc1ccccc1)c1ccccn1 | – | – | – | – | EC50 [6]: > 67.6 µM (inactive)
C[C@H]1CNC(=O)c2c(C(=O)N3CCN(c4ccccc4)CC3)ncn21 | – | – | – | – | AC50 [7]: 9.62 µM (active); AC50 [8]: 7.04 µM (active); AC50 [9]: 3.25 µM (active); AC50 [10]: 4.6 µM (active)
c1cncc(-c2noc(-c3ccc4ccccc4c3)n2)c1 | – | – | – | – | EC50 [6]: > 67.5 µM (inactive)
C=CCc1ccccc1OCC(CN1CCCCC1)OC(C)=O (stereo unspecified) | – | – | – | – | EC50 [5]: 5.31 µM (active)
CCc1c(C(=O)N2CCCN(C)CC2)csc1C | – | – | – | – | EC50 [5]: 5.96 µM (active)
Cc1cc(C)c(S(=O)(=O)N2CCC(C(=O)NCc3ccc(Cl)cc3Cl)CC2)c(C)c1 | – | – | – | – | AC50 [11]: < 0.195 µM (active)
COc1ccc(-n2nc3cc(N)c(Br)cc3n2)cc1 | 13.3 µM (active) | 5.03 µM (active) | 8.1 µM (active) | 11 µM (active) | –
COc1ccc(CN(C)C(=O)c2ccc(NC(=O)CC3SC(N4CCCC4)=NC3=O)cc2)c(OC)c1 (stereo unspecified) | – | – | – | – | EC50 [5]: 2.37 µM (active)
CCCCSc1ncnc2c1ncn2C1CCCCO1 (stereo unspecified) | – | – | – | – | EC50 [6]: > 67.4 µM (inactive)
CC(=O)c1sc(Nc2nc3ccc(F)cc3s2)nc1C | 18.8 µM (active) | 5.6 µM (active) | 11.2 µM (active) | 16 µM (active) | –
CCOC(=O)c1c(C)oc2c1cc(O)c1ccccc12 | – | – | – | – | EC50 [6]: > 67.5 µM (inactive)
CCCC#Cc1ccc2c(c1)O[C@@H](CN(C)C(=O)C1CCCCC1)[C@H](C)CN([C@H](C)CO)S2(=O)=O | – | – | – | – | AC50 [9]: 13.3 µM (active); AC50 [10]: 21.7 µM (active)

The next lines start with results.

IC50 [1] | IC50 [2] | IC50 [3] | SMILES | IC50 [4] | also measured
28.4 µM (active) | 5.37 µM (active) | 8.31 µM (active) | CNC(=O)c1ccsc1NC(=O)c1ccc2c(c1)CCCC2 | 17.9 µM (active) | –
32.2 µM (active) | 8.88 µM (active) | 18 µM (active) | COc1ccc(/C=C2/CCc3ccccc3C2=O)cc1OC | 17 µM (active) | –
21.4 µM (active) | 5.51 µM (active) | 11.9 µM (active) | Cc1ccc(OCc2nc(-c3cccs3)no2)c([N+](=O)[O-])c1 | 10.2 µM (active) | –
